Measured values as given in ChEMBL document CHEMBL1201862, “PubChem BioAssay data set” (2004).
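How tested: cells in 96-well plates exposed to compound for 48 hours at five concentrations. GI50 marks 50% less growth.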 Active and inactive are the calls of the source. Rule as the data show it: active = GI50 up to about 1.1 µM and inactive = higher.

Assays:
Assay in all cases: growth of human tumour cells (NCI), 48 h
786-0 = test system: 786-0
A498 = test system: A498
ACHN = test system: ACHN
CCRF-CEM = test system: CCRF-CEM
COLO 205 = test system: COLO 205
HCT-116 = test system: HCT-116
HL-60 = test system: HL-60
LOX IMVI = test system: LOX IMVI
M14 = test system: M14
MOLT-4 = test system: MOLT-4
Malme-3M = test system: Malme-3M
NCI-H460 = test system: NCI-H460
OVCAR-8 = test system: OVCAR-8
RPMI-8226 = test system: RPMI-8226
SF-268 = test system: SF-268
SK-MEL-5 = test system: SK-MEL-5
SNB-75 = test system: SNB-75
U-251 = test system: U-251
UACC-257 = test system: UACC-257
UO-31 = test system: UO-31

c1ccc2cc(-c3cc(-c4cc(-c5ccc6ccccc6c5)on4)no3)ccc2c1
GI50 (786-0): > 100 µM (inactive)
GI50 (A498): > 100 µM (inactive)
GI50 (ACHN): > 100 µM (inactive)
GI50 (CCRF-CEM): 13.6 µM (inactive)
GI50 (COLO 205): > 100 µM (inactive)
GI50 (HCT-116): > 100 µM (inactive)
GI50 (HL-60): > 100 µM (inactive)
GI50 (LOX IMVI): > 100 µM (inactive)
GI50 (M14): > 100 µM (inactive)
GI50 (MOLT-4): 88.9 µM (inactive)
GI50 (Malme-3M): > 100 µM (inactive)
GI50 (NCI-H460): > 100 µM (inactive)
GI50 (OVCAR-8): > 100 µM (inactive)
GI50 (RPMI-8226): > 100 µM (inactive)
GI50 (SF-268): > 100 µM (inactive)
GI50 (SK-MEL-5): > 100 µM (inactive)
GI50 (SNB-75): 64.7 µM (inactive)
GI50 (U-251): > 100 µM (inactive)
GI50 (UACC-257): > 100 µM (inactive)
GI50 (UO-31): 96.8 µM (inactive)

O=C1Nc2c(Cl)cccc2/C1=N/Nc1ccccc1[N+](=O)[O-]
GI50 (786-0): 10.1 µM (inactive)
GI50 (A498): 28.2 µM (inactive)
GI50 (ACHN): 11.9 µM (inactive)
GI50 (CCRF-CEM): 46 µM (inactive)
GI50 (COLO 205): 81.3 µM (inactive)
GI50 (HCT-116): 29.7 µM (inactive)
GI50 (HL-60): 70.1 µM (inactive)
GI50 (LOX IMVI): 11.8 µM (inactive)
GI50 (M14): 21.7 µM (inactive)
GI50 (MOLT-4): 31.3 µM (inactive)
GI50 (Malme-3M): 3.58 µM (inactive)
GI50 (NCI-H460): 17.3 µM (inactive)
GI50 (OVCAR-8): 12.4 µM (inactive)
GI50 (RPMI-8226): 25 µM (inactive)
GI50 (SF-268): 11.4 µM (inactive)
GI50 (SK-MEL-5): 12.2 µM (inactive)
GI50 (SNB-75): 14 µM (inactive)
GI50 (U-251): 14.2 µM (inactive)
GI50 (UACC-257): 22.4 µM (inactive)
GI50 (UO-31): 22.1 µM (inactive)

CCC/C(=N\NC(=O)c1cc2ccccc2cc1O)C(CC)C(=O)CCC(=O)N(Cc1ccccc1)Cc1ccccc1 (stereo not given)
GI50 (786-0): 25.7 µM (inactive)
GI50 (A498): 85.9 µM (inactive)
GI50 (ACHN): 33.5 µM (inactive)
GI50 (CCRF-CEM): 7.62 µM (inactive)
GI50 (COLO 205): 28.5 µM (inactive)
GI50 (HCT-116): 41 µM (inactive)
GI50 (HL-60): 13 µM (inactive)
GI50 (LOX IMVI): 43 µM (inactive)
GI50 (M14): 32.7 µM (inactive)
GI50 (MOLT-4): 30.7 µM (inactive)
GI50 (Malme-3M): 50.1 µM (inactive)
GI50 (NCI-H460): 35.6 µM (inactive)
GI50 (OVCAR-8): 49.9 µM (inactive)
GI50 (RPMI-8226): 45.8 µM (inactive)
GI50 (SF-268): 19.7 µM (inactive)
GI50 (SK-MEL-5): 23.4 µM (inactive)
GI50 (SNB-75): 9.73 µM (inactive)
GI50 (U-251): 57 µM (inactive)
GI50 (UACC-257): 36.1 µM (inactive)
GI50 (UO-31): 54 µM (inactive)

CC(=O)NC1=C(NC(C)(C)C)C(=O)c2ccccc2C1=O
GI50 (786-0): 3.4 µM (inactive)
GI50 (A498): 23.1 µM (inactive)
GI50 (ACHN): 86.1 µM (inactive)
GI50 (CCRF-CEM): 2.35 µM (inactive)
GI50 (COLO 205): 83.4 µM (inactive)
GI50 (HCT-116): 28.7 µM (inactive)
GI50 (HL-60): 2.23 µM (inactive)
GI50 (LOX IMVI): 16.7 µM (inactive)
GI50 (M14): 17.1 µM (inactive)
GI50 (MOLT-4): 6.43 µM (inactive)
GI50 (Malme-3M): 19.5 µM (inactive)
GI50 (NCI-H460): 19.2 µM (inactive)
GI50 (OVCAR-8): 20.3 µM (inactive)
GI50 (RPMI-8226): 11.7 µM (inactive)
GI50 (SF-268): 26.9 µM (inactive)
GI50 (SK-MEL-5): 18.2 µM (inactive)
GI50 (SNB-75): 13.6 µM (inactive)
GI50 (U-251): 37 µM (inactive)
GI50 (UACC-257): 15.9 µM (inactive)
GI50 (UO-31): 18.2 µM (inactive)

O=C(Nc1ccc(Cl)cc1Cl)c1c/c(=N\O)c2ccc(O)cc2o1
GI50 (786-0): > 100 µM (inactive)
GI50 (A498): > 100 µM (inactive)
GI50 (ACHN): > 100 µM (inactive)
GI50 (CCRF-CEM): > 100 µM (inactive)
GI50 (COLO 205): > 100 µM (inactive)
GI50 (HCT-116): > 100 µM (inactive)
GI50 (HL-60): > 100 µM (inactive)
GI50 (LOX IMVI): > 100 µM (inactive)
GI50 (M14): > 100 µM (inactive)
GI50 (MOLT-4): > 100 µM (inactive)
GI50 (Malme-3M): > 100 µM (inactive)
GI50 (NCI-H460): > 100 µM (inactive)
GI50 (OVCAR-8): > 100 µM (inactive)
GI50 (RPMI-8226): > 100 µM (inactive)
GI50 (SF-268): > 100 µM (inactive)
GI50 (SK-MEL-5): > 100 µM (inactive)
GI50 (SNB-75): 30.9 µM (inactive)
GI50 (U-251): > 100 µM (inactive)
GI50 (UACC-257): > 100 µM (inactive)
GI50 (UO-31): > 100 µM (inactive)

N#Cc1cnn2ccn(C3OC(COC(=O)c4ccccc4)C(OC(=O)c4ccccc4)C3OC(=O)c3ccccc3)c12 (stereo not given)
GI50 (786-0): > 21.5 µM (inactive)
GI50 (A498): 20.5 µM (inactive)
GI50 (ACHN): > 21.5 µM (inactive)
GI50 (CCRF-CEM): > 21.5 µM (inactive)
GI50 (COLO 205): > 21.5 µM (inactive)
GI50 (HCT-116): > 21.5 µM (inactive)
GI50 (HL-60): > 21.5 µM (inactive)
GI50 (LOX IMVI): > 31.6 µM (inactive)
GI50 (M14): > 21.5 µM (inactive)
GI50 (MOLT-4): > 21.5 µM (inactive)
GI50 (Malme-3M): > 21.5 µM (inactive)
GI50 (NCI-H460): > 21.5 µM (inactive)
GI50 (OVCAR-8): > 46.5 µM (inactive)
GI50 (RPMI-8226): > 21.5 µM (inactive)
GI50 (SF-268): > 21.5 µM (inactive)
GI50 (SK-MEL-5): > 21.5 µM (inactive)
GI50 (SNB-75): 1 µM (active)
GI50 (U-251): > 21.5 µM (inactive)
GI50 (UACC-257): > 21.5 µM (inactive)
GI50 (UO-31): > 21.5 µM (inactive)

CC(=O)/C=C\C(=O)NNS(=O)(=O)c1ccc(C)cc1
GI50 (786-0): > 100 µM (inactive)
GI50 (A498): > 100 µM (inactive)
GI50 (ACHN): > 100 µM (inactive)
GI50 (CCRF-CEM): > 100 µM (inactive)
GI50 (COLO 205): > 100 µM (inactive)
GI50 (HCT-116): > 100 µM (inactive)
GI50 (HL-60): > 100 µM (inactive)
GI50 (LOX IMVI): > 100 µM (inactive)
GI50 (M14): > 100 µM (inactive)
GI50 (MOLT-4): > 100 µM (inactive)
GI50 (Malme-3M): > 100 µM (inactive)
GI50 (NCI-H460): > 100 µM (inactive)
GI50 (OVCAR-8): > 100 µM (inactive)
GI50 (RPMI-8226): > 100 µM (inactive)
GI50 (SF-268): > 100 µM (inactive)
GI50 (SK-MEL-5): > 100 µM (inactive)
GI50 (SNB-75): > 100 µM (inactive)
GI50 (U-251): > 100 µM (inactive)
GI50 (UACC-257): > 100 µM (inactive)
GI50 (UO-31): > 100 µM (inactive)

Cc1c(N)nc(C(CC(N)=O)NCC(N)C(N)=O)nc1C(=O)NC(C(=O)NC(C)C(O)C(C)C(=O)NC(C(=O)NCCc1nc(-c2nc(C(=O)NCCCNCCCCN)cs2)cs1)C(C)O)C(OC1OC(CO)C(O)C(O)C1OC1OC(CO)C(O)C(OC(N)=O)C1O)c1c[nH]cn1 (stereo not given)
GI50 (786-0): 4.01 µM (inactive)
GI50 (A498): > 10 µM (inactive)
GI50 (ACHN): 0.00622 µM (active)
GI50 (CCRF-CEM): > 10 µM (inactive)
GI50 (COLO 205): > 10 µM (inactive)
GI50 (HCT-116): 1.29 µM (inactive)
GI50 (HL-60): > 10 µM (inactive)
GI50 (LOX IMVI): 0.461 µM (active)
GI50 (M14): 1.67 µM (inactive)
GI50 (MOLT-4): 2.94 µM (inactive)
GI50 (Malme-3M): 2.07 µM (inactive)
GI50 (NCI-H460): 0.143 µM (active)
GI50 (OVCAR-8): > 10 µM (inactive)
GI50 (RPMI-8226): > 10 µM (inactive)
GI50 (SF-268): 1.18 µM (inactive)
GI50 (SK-MEL-5): 2.43 µM (inactive)
GI50 (SNB-75): 0.202 µM (active)
GI50 (U-251): > 10 µM (inactive)
GI50 (UACC-257): > 10 µM (inactive)
GI50 (UO-31): 2.36 µM (inactive)

O=c1[nH]cnc2[nH]nnc12
GI50 (786-0): 3.27 µM (inactive)
GI50 (A498): 57 µM (inactive)
GI50 (ACHN): 12 µM (inactive)
GI50 (CCRF-CEM): 0.4 µM (active)
GI50 (COLO 205): 47.1 µM (inactive)
GI50 (HCT-116): 2.1 µM (inactive)
GI50 (HL-60): 0.323 µM (active)
GI50 (LOX IMVI): 0.668 µM (active)
GI50 (M14): 1.11 µM (active)
GI50 (MOLT-4): 0.726 µM (active)
GI50 (Malme-3M): 1.41 µM (inactive)
GI50 (NCI-H460): 8.65 µM (inactive)
GI50 (OVCAR-8): 0.723 µM (active)
GI50 (RPMI-8226): 0.685 µM (active)
GI50 (SF-268): 1.06 µM (active)
GI50 (SK-MEL-5): 41.5 µM (inactive)
GI50 (SNB-75): 4.11 µM (inactive)
GI50 (U-251): 34.6 µM (inactive)
GI50 (UACC-257): 4.39 µM (inactive)
GI50 (UO-31): 2.73 µM (inactive)

COC(=O)CC(C(C(=O)OCc1ccccc1)C(C)O)N1C(=O)OCC1c1ccccc1 (stereo not given)
GI50 (786-0): > 100 µM (inactive)
GI50 (A498): 22.2 µM (inactive)
GI50 (ACHN): 63.2 µM (inactive)
GI50 (CCRF-CEM): 49 µM (inactive)
GI50 (COLO 205): 48.4 µM (inactive)
GI50 (HCT-116): > 100 µM (inactive)
GI50 (HL-60): 34.2 µM (inactive)
GI50 (LOX IMVI): > 100 µM (inactive)
GI50 (M14): > 100 µM (inactive)
GI50 (MOLT-4): 29.4 µM (inactive)
GI50 (Malme-3M): > 100 µM (inactive)
GI50 (NCI-H460): 68.2 µM (inactive)
GI50 (OVCAR-8): 91.6 µM (inactive)
GI50 (RPMI-8226): 27.6 µM (inactive)
GI50 (SF-268): 97.5 µM (inactive)
GI50 (SK-MEL-5): 42.3 µM (inactive)
GI50 (SNB-75): 20 µM (inactive)
GI50 (U-251): 83 µM (inactive)
GI50 (UACC-257): 75.7 µM (inactive)
GI50 (UO-31): 24.3 µM (inactive)
